We go through five compounds from PMC6146376, “Rational design of new cyclic analogues of the antimicrobial lipopeptide tridecaptin A1” (Chemical Communications (Cambridge, England), 2018).

The structures appear in SMILES notation. Non-standard residues stand in square brackets, D forms with d. Residues, ends and D or L forms follow the SMILES beside them. *: point of attachment. d(aIle) = CC[C@H](C)[C@@H](N)C(=O)O; dAllylGly = C=CC[C@@H](N)C(=O)O; AllylGly = C=CC[C@H](N)C(=O)O; dDab = NCC[C@@H](N)C(=O)O; Octanoyl = CCCCCCCC(=O)*; Dab = NCC[C@H](N)C(=O)O

The subject of data set [1] is Staphylococcus aureus NCTC 10788. In kind it is cell-based. The conditions noted are these: NCTC 10788, 18 h. Here is the method:
(§1) [formula] Scheme 1 Synthesis of novel cyclic analogues of TriA1. MIC = minimum inhibitory concentration. Determined by microbroth dilutions assays and experiments run in duplicate. Values are shown to two significant figures and reported in μg mL^–1. ^a Strain NCTC 12241. ^b Strain NCTC 10788. ^c Strain NCTC 9633. ^d Strain NCTC 13304. ^e Strain NCTC 5920. […]
(§2) VIII. Antimicrobial testing
(§3) All minimum inhibitory concentrations (MICs) were determined according to Clinical and Standards Laboratory Institute (CLSI) guidelines.5 Briefly, peptides were dissolved in Muller-Hinton Broth (MHB) and serial dilutions made across a 96 well plate. Each well was inoculated with a suspension of the required bacterial strain to reach a final inoculum of 5 x 10^5 colony forming units per mL. The MIC was taken as the lowest concentration with no visible growth after 18 hours. […]

Data set [2] relates to Escherichia coli NCTC 12241. It counts as cell-based. The conditions noted are these: NCTC 12241, 18 h. The procedure:
as §1, §2, §3

Data set [3] is classed as physicochemical. The conditions noted are these: pH 7.4. Here is the method: The D-stereoselective peptidase TriF is a membrane associated protein found in Paenibacillus polymyxa CICC 10580.[7] TriFpep, the soluble periplasmic peptidase domain of TriF, which lacks the signal peptide and four hydrophobic transmembrane helices, was expressed in E. coli BL21 cells as a C-terminal His6-tag protein construct.[7] TriA1 analogues 1–9 were incubated with TriFpep at 37 °C for 12 h and the reaction mixtures analysed by UPLC-MS. […] We were unable to test the stability of Oct-cTriA1(biphenyl) (9) as it is insoluble in the TriF assay mixture. […] These analogues therefore represent a new scaffold of macrocyclic peptides with selective activity against Gram-negative bacteria. […]
All minimum inhibitory concentrations (MICs) were determined according to Clinical and Standards Laboratory Institute (CLSI) guidelines.5 Briefly, peptides were dissolved in Muller-Hinton Broth (MHB) and serial dilutions made across a 96 well plate. […]
TriFpep was expressed and purified as previously described.3 An assay mixture (total volume 30 μL in 25% phosphate-buffered saline (PBS) buffer, pH 7.4) containing TriFpep (2.0 μM) and the desired peptide (added as a DMSO solution to give a final concentration of 20 μM) was prepared and incubated for 12 h at 37 °C. […] The samples were centrifuged at 15,000 rpm for 10 min and 2 μL of the supernatant was analyzed by UPLC–MS system as previously described.3

For data set [4], the system named is bacterial indicator strains. Briefly: Antimicrobial activity, strain not named in the sentence (microbroth dilution). In kind it is cell-based. The conditions noted are these: highest concentration tested 50 μg mL^–1. The procedure:
as §1, §2, §3

For `CCCCCCCC(=O)N[C@@H](C(=O)N[C@H](CCN)C(=O)NCC(=O)N[C@H](CO)C(=O)N[C@H](Cc1c[nH]c2ccccc12)C(=O)N[C@@H](CO)C(=O)N[C@@H](CCN)C(=O)N[C@H](CCN)C(=O)N[C@@H](Cc1ccccc1)C(=O)N[C@@H](CCC(=O)O)C(=O)N[C@H](C(=O)N[C@@H](C(=O)N[C@@H](C)C(=O)O)[C@@H](C)CC)C(C)C)C(C)C` [Peptide 1, Oct-TriA1], in data set [1], the “MIC S. aureus” value was 25 μg mL^–1. The “MIC E. coli” value in data set [2] came to 0.39 μg mL^–1.

With `CCCCCCCC(=O)N[C@@H](C(=O)N[C@H](CCN)C(=O)NCC(=O)N[C@H](CO)C(=O)N[C@H](CS)C(=O)N[C@@H](CO)C(=O)N[C@@H](CCN)C(=O)N[C@H](CCN)C(=O)N[C@@H](CS)C(=O)N[C@@H](CCC(=O)O)C(=O)N[C@H](C(=O)N[C@@H](C(=O)N[C@@H](C)C(=O)O)[C@@H](C)CC)C(C)C)C(C)C` [Peptide 4, Oct-TriA1-(5-D-Cys, 9-Cys)], the “MIC S. aureus” value in data set [1] is above 50 μg mL^–1. For the same compound, in data set [2], the “MIC E. coli” value is recorded as above 50 μg mL^–1.

As to `C=CCSC[C@H](NC(=O)[C@@H](CCN)NC(=O)[C@H](CCN)NC(=O)[C@H](CO)NC(=O)[C@@H](CSCC=C)NC(=O)[C@@H](CO)NC(=O)CNC(=O)[C@@H](CCN)NC(=O)[C@H](NC(=O)CCCCCCC)C(C)C)C(=O)N[C@@H](CCC(=O)O)C(=O)N[C@H](C(=O)N[C@@H](C(=O)N[C@@H](C)C(=O)O)[C@@H](C)CC)C(C)C` [Peptide 3, Oct-TriA1-(5-D-Sac, 9-Sac)], in data set [1], the “MIC S. aureus” value is on record as above 50 μg mL^–1. Further, the “MIC E. coli” value in data set [2] was above 50 μg mL^–1.

Turning to `CCCCCCCC(=O)N[C@@H](C(=O)N[C@H](CCN)C(=O)NCC(=O)N[C@H](CO)C(=O)N[C@@H]1CSCc2ccc(cc2)-c2ccc(cc2)CSC[C@@H](C(=O)N[C@@H](CCC(=O)O)C(=O)N[C@H](C(=O)N[C@@H](C(=O)N[C@@H](C)C(=O)O)[C@@H](C)CC)C(C)C)NC(=O)[C@@H](CCN)NC(=O)[C@H](CCN)NC(=O)[C@H](CO)NC1=O)C(C)C` [Peptide 9, Oct-cTriA1 (biphenyl)], in data set [3], the “solubility in the TriF assay mixture” value is listed as “insoluble”. The “antimicrobial activity (MIC bound, strain not named)” value in data set [4] is listed as above 50 μg mL^–1.

Regarding `C=CC[C@H](NC(=O)[C@@H](CCN)NC(=O)[C@H](CCN)NC(=O)[C@H](CO)NC(=O)[C@@H](CC=C)NC(=O)[C@@H](CO)NC(=O)CNC(=O)[C@@H](CCN)NC(=O)[C@H](NC(=O)CCCCCCC)C(C)C)C(=O)N[C@@H](CCC(=O)O)C(=O)N[C@H](C(=O)N[C@@H](C(=O)N[C@@H](C)C(=O)O)[C@@H](C)CC)C(C)C` [Peptide 2, Oct-TriA1-(5-D-Agl, 9-Agl)] (Octanoyl-[dV][dDab]G[dS][dAllylGly]S[Dab][dDab][AllylGly]EV[d(aIle)]A-OH), in data set [1], the “MIC S. aureus” value is above 50 μg mL^–1. Moreover, the “MIC E. coli” value in data set [2] is on record as above 50 μg mL^–1.
